According to ChEMBL document CHEMBL1134054, “p38 kinase inhibitors for the treatment of arthritis and osteoporosis: thienyl, furyl, and pyrrolyl ureas” (Bioorg Med Chem Lett, 2001):

Tests used:
[1] = target: T1, Mitogen-activated protein kinase 14 (Homo sapiens, UniProt Q16539); assay: Inhibition of Mitogen-activated protein kinase p38 alpha 2
[2] = target: T1, Mitogen-activated protein kinase 14; assay: Percent inhibition determined in vitro against mitogen-activated protein kinase p38 alpha 2 derived from Escherichia coli at 5 uM
[3] = target: T1, Mitogen-activated protein kinase 14; assay: Inhibition of p38 alpha-2 kinase
SW1353 = assay: Inhibition of IL-6 production by SW1353 cells treated with both cytokines IL-1 and TNF-alpha.; format: functional, cell-based; conditions: Homo sapiens
[4] = target: T1, Mitogen-activated protein kinase 14; assay: In vitro inhibition of mitogen-activated protein kinase p38 alpha 2 derived from Escherichia coli

T1 sequence (Q16539 whole entry): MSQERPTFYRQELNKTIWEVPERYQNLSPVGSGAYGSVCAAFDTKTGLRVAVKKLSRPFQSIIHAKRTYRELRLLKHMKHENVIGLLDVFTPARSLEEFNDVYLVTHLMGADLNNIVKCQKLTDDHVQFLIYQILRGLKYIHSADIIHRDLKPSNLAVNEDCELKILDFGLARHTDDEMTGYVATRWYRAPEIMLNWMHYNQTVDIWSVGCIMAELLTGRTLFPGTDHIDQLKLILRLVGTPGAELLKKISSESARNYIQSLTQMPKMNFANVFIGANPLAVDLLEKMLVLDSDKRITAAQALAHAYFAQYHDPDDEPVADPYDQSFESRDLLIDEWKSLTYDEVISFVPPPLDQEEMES

| Compound | inhibition [2] | IC50 [4] | further results |
| --- | --- | --- | --- |
| COC(=O)c1sc(C(C)(C)C)cc1NC(=O)Nc1ccc(O)cc1 | 44% | 0.61 µM | – |
| Cc1ccc(NC(=O)Nc2cc(C(C)(C)C)sc2C(=O)OCCO)cc1 | – | – | IC50 [1]: 0.057 µM |
| COC(=O)c1[nH]c(C(C)(C)C)cc1NC(=O)Nc1ccccc1Cl | 85% | 0.06 µM | – |
| CNC(=O)c1oc(C(C)(C)C)cc1NC(=O)Nc1ccc(C)cc1 | – | 0.032 µM | – |
| COC(=O)c1sc(C(C)(C)C)cc1NC(=O)Nc1ccc(OC)cc1 | 8% | – | – |
| COC(=O)c1sc(C(C)(C)C)cc1NC(=O)Nc1ccc([N+](=O)[O-])cc1 | 16% | – | – |
| COC(=O)c1sc(C(C)(C)O)cc1NC(=O)Nc1ccc(C)cc1 | 34% | – | – |
| Cc1ccc(NC(=O)Nc2cc(C(C)(C)C)sc2C(=O)OC(C)C)cc1 | – | – | IC50 [1]: 0.741 µM |
| CCCOC(=O)c1sc(C(C)(C)C)cc1NC(=O)Nc1ccc(C)cc1 | – | – | IC50 [1]: 0.482 µM |
| CNC(=O)c1[nH]c(C(C)(C)C)cc1NC(=O)Nc1cccc2ccccc12 | 96% | 0.028 µM | IC50 (SW1353): 0.035 µM |
| COC(=O)c1sc(-c2ccccc2)cc1NC(=O)Nc1ccc(C)cc1 | 0% | – | – |
| COCCOC(=O)c1sc(C(C)(C)C)cc1NC(=O)Nc1ccc(C)cc1 | – | – | IC50 [1]: 0.464 µM |
| COC(=O)c1[nH]c(C(C)(C)C)cc1NC(=O)Nc1ccccc1 | – | 0.044 µM | – |
| COC(=O)c1sc([N+](=O)[O-])cc1NC(=O)Nc1ccc(C)cc1 | 0% | – | – |
| CNC(=O)c1sc(C(C)(C)C)cc1NC(=O)Nc1ccc(C(C)C)cc1 | 63% | 0.27 µM | – |
| COC(=O)c1sc(C(C)(C)C)cc1NC(=O)Nc1ccc(N)cc1 | 40% | 0.75 µM | – |

| Compound | inhibition [2] | IC50 [4] | further results |
| --- | --- | --- | --- |
| CNC(=O)c1sc(C(C)(C)C)cc1NC(=O)Nc1ccc(C)cc1 | – | – | IC50 [1]: 0.034 µM; IC50 (SW1353): 1.35 µM |
| COC(=O)c1sc(C(C)(C)C)cc1NC(=O)Nc1ccc(-c2ccccc2)cc1 | 6% | – | – |
| COC(=O)c1[nH]c(C(C)(C)C)cc1NC(=O)Nc1cccc(Cl)c1 | 95% | 0.027 µM | – |
| COC(=O)c1sc(C(C)(C)C)cc1NC(=O)Nc1ccc(C(C)C)cc1 | 10% | – | – |
| CNC(=O)c1[nH]c(C(C)(C)C)cc1NC(=O)Nc1ccc(C)cc1 | – | 0.067 µM | IC50 (SW1353): 0.015 µM |
| CCOC(=O)c1sc(C(C)(C)C)cc1NC(=O)Nc1ccc(C)cc1 | – | – | IC50 [1]: 3.02 µM |
| COC(=O)c1[nH]c(C(C)(C)C)cc1NC(=O)Nc1ccc(F)cc1 | 89% | 0.042 µM | IC50 (SW1353): 0.464 µM |
| COC(=O)COC(=O)c1sc(C(C)(C)C)cc1NC(=O)Nc1ccc(C)cc1 | – | – | IC50 [1]: 5.31 µM |
| COC(=O)c1sc(CC(C)C)cc1NC(=O)Nc1ccc(C)cc1 | 0% | – | – |
| COC(=O)c1c(NC(=O)Nc2ccc(C)cc2)cc(C(C)(C)C)n1C | – | 0.4 µM | – |
| CNC(=O)c1[nH]c(C(C)(C)C)cc1NC(=O)Nc1cccc(Cl)c1Cl | 95% | 0.044 µM | IC50 (SW1353): 0.016 µM |
| COC(=O)c1oc(C(C)(C)C)cc1NC(=O)Nc1ccc(C)cc1 | – | 0.073 µM | IC50 (SW1353): 0.335 µM |
| COC(=O)c1sc(CCc2ccccc2)cc1NC(=O)Nc1ccc(C)cc1 | 17% | – | – |
| Cc1ccc(NC(=O)Nc2cc(C(C)(C)C)sc2C(=O)OCCCO)cc1 | – | – | IC50 [1]: 0.056 µM |
| COC(=O)c1sc(C(C)C)cc1NC(=O)Nc1ccc(C)cc1 | 37% | – | – |
| COC(=O)c1oc(C(C)(C)C)cc1NC(=O)Nc1cccc(Cl)c1Cl | 97% | 0.032 µM | – |

The next lines start with results.

| inhibition [2] | IC50 [4] | Compound | further results |
| --- | --- | --- | --- |
| 94% | – | COC(=O)c1sc(C(C)(C)C)cc1NC(=O)Nc1ccc(C)cc1 | IC50 [1]: 0.413 µM; IC50 [3]: 0.248 µM; IC50 (SW1353): 0.905 µM |
| 50% | 0.387 µM | COC(=O)c1c(NC(=O)Nc2cccc(Cl)c2Cl)cc(C(C)(C)C)n1C | – |
| 40% | 0.66 µM | CCc1ccc(NC(=O)Nc2cc(C(C)(C)C)sc2C(=O)OC)cc1 | – |
| 42% | 0.663 µM | COC(=O)c1c(NC(=O)Nc2ccc(F)cc2)cc(C(C)(C)C)n1C | – |
| 23% | – | COC(=O)c1sc(C(C)(C)C)cc1NC(=O)Nc1ccc(NC(C)=O)cc1 | – |
| 99% | 0.006 µM | COC(=O)c1[nH]c(C(C)(C)C)cc1NC(=O)Nc1cccc(Cl)c1Cl | IC50 (SW1353): 0.079 µM |
| 68% | 0.29 µM | COC(=O)c1sc(C(C)(C)C)cc1NC(=O)Nc1ccccc1 | – |
| 67% | 0.253 µM | COC(=O)c1c(NC(=O)Nc2cccc3ccccc23)cc(C(C)(C)C)n1C | – |
| 32% | 0.947 µM | COC(=O)c1c(NC(=O)Nc2ccccc2)cc(C(C)(C)C)n1C | – |
| 90% | – | COC(=O)c1sc(N)cc1NC(=O)Nc1ccc(C)cc1 | IC50 [1]: 0.441 µM |
| – | 1.2 µM | COC(=O)c1oc(C(C)(C)C)cc1NC(=O)Nc1ccc(Cl)c(Cl)c1 | – |
| 35% | 0.83 µM | COC(=O)c1sc(C(C)(C)C)cc1NC(=O)Nc1ccc(F)cc1 | – |
| 92% | 0.043 µM | COC(=O)c1[nH]c(C(C)(C)C)cc1NC(=O)Nc1ccc(Cl)cc1 | – |
| 76% | 0.22 µM | COC(=O)c1sc(C(C)(C)C)cc1NC(=O)Nc1ccc(Cl)cc1 | – |
| 70% | 0.119 µM | CCc1ccc(NC(=O)Nc2cc(C(C)(C)C)sc2C(=O)NC)cc1 | – |
| 4% | – | COC(=O)c1sc(C(C)(C)C)cc1NC(=O)Nc1ccc(C(=O)O)cc1 | – |
| 8% | – | COC(=O)c1sc(CCC(C)C)cc1NC(=O)Nc1ccc(C)cc1 | – |
| 67% | 0.21 µM | COC(=O)c1oc(C(C)(C)C)cc1NC(=O)Nc1ccc(F)cc1 | – |
| 79% | 0.18 µM | COC(=O)c1sc(C(C)(C)C)cc1NC(=O)Nc1cccc(Cl)c1Cl | – |
| 21% | – | COC(=O)c1sc(C(C)(C)C)cc1NC(=O)Nc1ccc(C(C)=O)cc1 | – |
| – | 0.033 µM | COC(=O)c1[nH]c(C(C)(C)C)cc1NC(=O)Nc1ccc(C)cc1 | IC50 (SW1353): 1.14 µM |
| – | 0.012 µM | COC(=O)c1[nH]c(C(C)(C)C)cc1NC(=O)Nc1cccc2ccccc12 | IC50 (SW1353): 0.309 µM |
| 80% | 0.088 µM | CNC(=O)c1sc(C(C)(C)C)cc1NC(=O)Nc1ccc(F)cc1 | – |
